Values of other authors as cited in article PMC7832358, “Trending Topics on Coumarin and Its Derivatives in 2020” (Molecules, 2021).

Assays:
[1] = biological target: xanthine oxidase; parameters: method as in PMID 32574739; details: read-out: xanthine oxidase inhibition IC50
[2] = test system: B16F10 cells; parameters: method as in PMID 32574739
[3] = test system: reserpinized mice; details: reserpinized mice pre-treated with levodopa and benserazide
[4] = test system: hMAO-B; details: read-out: hMAO-B inhibition IC50
[5] = parameters: method as in PMID 31887477; details: inhibitor of thioredoxin reductases (TrxRs); read-out: antitumor activity IC50
[6] = test system: Ebolavirus (EBOV); details: read-out: IC50 against EBOV
[7] = test system: Marburg virus (MARV); details: read-out: IC50 against MARV
[8] = test system: tyrosinase; parameters: method as in PMID 32652434
[9] = test system: hA3 receptors; parameters: method as in PMID 31738058; details: antagonists
[10] = test system: streptozotocin (STZ)-induced cognitive dysfunction in rats
[11] = test system: streptozotocin (STZ)-induced cognitive dysfunction in rats; remark: listed apart in the source

COc1ccc(-c2cc3cc([N+](=O)[O-])ccc3oc2=O)cc1 [3-(4-methoxyphenyl)-6-nitrocoumarin]
IC50 [1]: 8400 nM
cytotoxicity in B16F10 cells [2]: non-cytotoxic

O=c1oc2cc(O)ccc2cc1-c1cc(Br)cs1 [3-(4′-bromothiophen-2′-yl)-7-hydroxycoumarin]
in vivo profile on locomotor activity (OFT) versus selegiline [3]: slightly better in vivo profile than selegiline
IC50 [4]: 140 nM

CCN(CC)c1ccc2cc(/C=C/C(=O)c3ccc(OC)c(O)c3)c(=O)oc2c1 [compound V]
IC50 [5]: 3600 nM

Cc1c(Cc2ccc(OC(F)(F)F)cc2)c(=O)oc2cc(OCC(O)CN3CCC(C(N)=O)CC3)ccc12 (stereo not shown) [compound XVI]
IC50 [6]: 500 nM
IC50 [7]: 1200 nM

O=c1cc(OCc2cn(Cc3cocc(O)c3=O)nn2)c2ccccc2o1 [compound XXVI]
tyrosinase inhibitory activity [8]: sub-micromolar range

O=c1oc2c(O)cccc2cc1-c1ccc(Br)cc1 [compound XX]
hA3 receptor affinity [9]: low nanomolar range

O=c1ccc2ccc(O)cc2o1 [umbelliferone]
cognitive deficits in the Morris water maze and object recognition tests [10]: prevent cognitive deficits
activity of hippocampal AChE [11]: reduced
expression of NF-κB inhibitor (IκB-α) [11]: upregulating
glutathione content [11]: increasing
level of malondialdehyde [11]: reduced
level of proinflammatory cytokines [11]: reducing
overexpression of inflammatory markers (nuclear factor κB and cyclooxygenase II) [11]: inhibiting

COc1c2occc2cc2ccc(=O)oc12 [xanthotoxin]
cognitive deficits in the Morris water maze and object recognition tests [10]: prevent cognitive deficits
activity of hippocampal AChE [11]: reduced
expression of NF-κB inhibitor (IκB-α) [11]: upregulating
glutathione content [11]: increasing
level of malondialdehyde [11]: reduced
level of proinflammatory cytokines [11]: reducing
